Tests used:
[1] = Single dose oral pharmacokinetic study; assay type: in vivo; details: mouse, Mice oral PK @30 mg/kg, plasma, vehicle 10% Solutol+20% PEG; for AUC(0-t): read-out: AUC0-t; for Cmax: read-out: Cmax
Description: The test item was administered through oral route to animals (rat/mice) at 30 mg/kg dose in a suitable vehicle (10% Solutol+20% PEG) at 10 ml/kg dose volume. Blood samples (˜50 μL at each time point) were collected from retro-orbital plexus using K3 EDTA as anticoagulant in eppendorf tubes at defined time intervals 30 minutes, 1 hour, 2 hour, 4 hour, 8 hour, 24 hour & 48 hour under light ether anaesthesia. The samples were centrifuged at 3500×g to separate plasma and stored at −80° C. until analysis. Plasma 25 μl for Mice were processed as per described in sample preparation.
Standard solutions of the test compound 1 mg/mL solutions were prepared in DMSO and further dilutions were made in methanol. […] To the test compound plasma extraction was carried out using Acetonitrile precipitation. After reconstitution with solvent (50% Acetonitrile in Buffer) samples were analyzed by LCMSMS to get the concentrations to calculate PK Parameters.

[2] = Cyto-toxicity (MTT assay); assay type: cell-based
Description: On day 1 calculate the number of cells required for the assay and seed 3×10^4 cells in 200 μl per well. Weigh the compound and dissolve it in DMSO to get 10 mM stock which is further diluted to 3 mM and 1 mM. […] Add DMSO to controls in a way to obtain final concentration of solvent that is not greater than 1%. Incubate for 4 days in 5% CO2 incubator at 37° C. On day 4, 100 μl of medium was removed from each well without disturbing the cells. Add 10 μl of MTT reagent and incubate for 4 hours at 5% CO2 incubator at 37° C. for formation of crystals. Add 200 μl of 0.1N acidic isopropanol to dissolve the crystals and read the plate at 590 nm. The values are mentioned in below Table-3 and Table-3A.

Structure (SMILES): CC(C)C1=C2[C@H]3CC[C@@H]4[C@@]5(C)CC[C@H](OC(=O)[C@H]6C[C@@H](C(=O)O)C6(C)C)C(C)(C)[C@@H]5CC[C@@]4(C)[C@]3(C)CC[C@@]2(NC(=O)C2(NC(=O)c3cccnc3N3CCOCC3)CCC2)CC1=O [Example 45, (1R,3S)-3-((((3aR,5aR,5bR,7aR,9S,11aR,11bR,13aS)-1-isopropyl-5a,5b,8,8,11a-pentamethyl-3a-(1-(2-morpholinonicotinamido)cyclobutane-1-carboxamido)-2-oxo-3,3a,4,5,5a,5b,6,7,7a,8,9,10,11,11a,11b,12,13,13a-octadecahydro-2H-cyclopenta[a]chrysen-9-yl)oxy)carbonyl)-2,2-dimethylcyclobutane-1-carboxylic acid]
- AUC(0-t) [1]: 214 µg·h/mL
- Cmax [1]: 21200 ng/mL

Structure (SMILES): CC(C)C1=C2[C@H]3CC[C@@H]4[C@@]5(C)CC[C@H](OC(=O)[C@H]6C[C@@H](C(=O)O)C6(C)C)C(C)(C)[C@@H]5CC[C@@]4(C)[C@]3(C)CC[C@@]2(NC(=O)C(C)(C)NC(=O)c2ccc(Cl)cn2)CC1=O [Example 70, (1R,3S)-3-((((3aR,5aR,5bR,7aR,9S,11aR,11bR,13aS)-3a-(2-(5-chloropicolinamido)-2-methylpropanamido)-1-isopropyl-5a,5b,8,8,11a-pentamethyl-2-oxo-3,3a,4,5,5a,5b,6,7,7a,8,9,10,11,11a,11b,12,13,13a-octadecahydro-2H-cyclopenta[a]chrysen-9-yl)oxy)carbonyl)-2,2-dimethylcyclobutane-1-carboxylic acid]
- AUC(0-t) [1]: 881 µg·h/mL
- Cmax [1]: 36600 ng/mL

Structure (SMILES): CC(C)C1=C2[C@H]3CC[C@@H]4[C@@]5(C)CC[C@H](OC(=O)[C@H]6C[C@@H](C(=O)O)C6(C)C)C(C)(C)[C@@H]5CC[C@@]4(C)[C@]3(C)CC[C@@]2(NC(=O)C(C)(C)NC(=O)Cc2ccc(Cl)cc2)CC1=O [Example 53, (1R,3S)-3-((((3aR,5aR,5bR,7aR,9S,11aR,11bR,13aS)-3a-(2-(2-(4-chlorophenyl)acetamido)-2-methylpropanamido)-1-isopropyl-5a,5b,8,8,11a-pentamethyl-2-oxo-3,3a,4,5,5a,5b,6,7,7a,8,9,10,11,11a,11b,12,13,13a-octadecahydro-2H-cyclopenta[a]chrysen-9-yl)oxy)carbonyl)-2,2-dimethylcyclobutane-1-carboxylic acid]
- AUC(0-t) [1]: 57.8 µg·h/mL
- Cmax [1]: 9750 ng/mL

Structure (SMILES): CC(C)C1=C2[C@H]3CC[C@@H]4[C@@]5(C)CC[C@H](OC(=O)[C@H]6C[C@@H](C(=O)O)C6(C)C)C(C)(C)[C@@H]5CC[C@@]4(C)[C@]3(C)CC[C@@]2(NC(=O)C(C)(C)NC(=O)c2cnn3cccnc23)CC1=O [Example 54, (1R,3S)-3-((((3aR,5aR,5bR,7aR,9S,11aR,11bR,13aS)-1-isopropyl-5a,5b,8,8,11a-pentamethyl-3a-(2-methyl-2-(pyrazolo[1,5-a]pyrimidine-3-carboxamido)propanamido)-2-oxo-3,3a,4,5,5a,5b,6,7,7a,8,9,10,11,11a,11b,12,13,13a-octadecahydro-2H-cyclopenta[a]chrysen-9-yl)oxy)carbonyl)-2,2-dimethylcyclobutane-1-carboxylic acid]
- AUC(0-t) [1]: 402 µg·h/mL
- Cmax [1]: 29200 ng/mL

Structure (SMILES): CC(C)C1=C2[C@H]3CC[C@@H]4[C@@]5(C)CC[C@H](OC(=O)[C@H]6C[C@@H](C(=O)O)C6(C)C)C(C)(C)[C@@H]5CC[C@@]4(C)[C@]3(C)CC[C@@]2(NC(=O)C(C)(C)NC(=O)c2nccn2C)CC1=O [Example 16, (1R,3S)-3-((((3aR,5aR,5bR,7aR,9S,11aR,11bR,13aS)-1-isopropyl-5a,5b,8,8,11a-pentamethyl-3a-(2-methyl-2-(1-methyl-1H-imidazole-2-carboxamido)propanamido)-2-oxo-3,3a,4,5,5a,5b,6,7,7a,8,9,10,11,11a,11b,12,13,13a-octadecahydro-2H-cyclopenta[a]chrysen-9-yl)oxy)carbonyl)-2,2-dimethylcyclobutane-1-carboxylic acid]
- viability at 4 days, 0.01 µM [2]: 37%
- viability at 4 days, 0.1 µM [2]: 11%
- viability at 4 days, 1 µM [2]: 2%

Structure (SMILES): CC(C)C1=C2[C@H]3CC[C@@H]4[C@@]5(C)CC[C@H](OC(=O)[C@H]6C[C@@H](C(=O)O)C6(C)C)C(C)(C)[C@@H]5CC[C@@]4(C)[C@]3(C)CC[C@@]2(NC(=O)C(C)(C)NCC2(c3ccc(Cl)cc3)CC2)CC1=O [Example 69, (1R,3S)-3-((((3aR,5aR,5bR,7aR,9S,11aR,11bR,13aS)-3a-(2-(((1-(4-chlorophenyl)cyclopropyl)methyl)amino)-2-methylpropanamido)-1-isopropyl-5a,5b,8,8, 11a-pentamethyl-2-oxo-3,3a,4,5,5a,5b,6,7,7a,8,9,10,11,11a,11b,12,13,13a-octadecahydro-2H-cyclopenta[a]chrysen-9-yl)oxy)carbonyl)-2,2-dimethylcyclobutane-1-carboxylic acid]
- viability at 4 days, 0.01 µM [2]: 42%
- viability at 4 days, 0.1 µM [2]: 8%
- viability at 4 days, 1 µM [2]: 8%

Structure (SMILES): Cc1cccnc1C(=O)NC(C)(C)C(=O)N[C@@]12CC[C@]3(C)[C@H](CC[C@@H]4[C@@]5(C)CC[C@H](OC(=O)[C@H]6C[C@@H](C(=O)O)C6(C)C)C(C)(C)[C@@H]5CC[C@]43C)C1=C(C(C)C)C(=O)C2 [Example 29, (1R,3S)-3-((((3aR,5aR,5bR,7aR,9S,11aR,11bR,13aS)-1-isopropyl-5a,5b,8,8,11a-pentamethyl-3a-(2-methyl-2-(3-methylpicolinamido)propanamido)-2-oxo-3,3a,4,5,5a,5b,6,7,7a,8,9,10,11,11a,11b,12,13,13a-octadecahydro-2H-cyclopenta[a]chrysen-9-yl)oxy)carbonyl)-2,2-dimethylcyclobutane-1-carboxylic acid]
- viability at 4 days, 0.01 µM [2]: 29%
- viability at 4 days, 0.1 µM [2]: 3%
- viability at 4 days, 1 µM [2]: 2%

Structure (SMILES): Cc1ccc(C(=O)NC2(C(=O)N[C@@]34CC[C@]5(C)[C@H](CC[C@@H]6[C@@]7(C)CC[C@H](OC(=O)[C@H]8C[C@@H](C(=O)O)C8(C)C)C(C)(C)[C@@H]7CC[C@]65C)C3=C(C(C)C)C(=O)C4)CCCCC2)cn1 [Example 49, (1R,3S)-3-((((3aR,5aR,5bR,7aR,9S,11aR,11bR,13aS)-1-isopropyl-5a,5b,8,8,11a-pentamethyl-3a-(1-(6-methylnicotinamido)cyclohexane-1-carboxamido)-2-oxo-3,3a,4,5,5a,5b,6,7,7a,8,9,10,11,11a,11b,12,13,13a-octadecahydro-2H-cyclopenta[a]chrysen-9-yl)oxy)carbonyl)-2,2-dimethylcyclobutane-1-carboxylic acid]
- viability at 4 days, 0.01 µM [2]: 56%
- viability at 4 days, 0.1 µM [2]: 12%
- viability at 4 days, 1 µM [2]: 4%

Structure (SMILES): CC(C)C1=C2[C@H]3CC[C@@H]4[C@@]5(C)CC[C@H](OC(=O)[C@H]6C[C@@H](C(=O)O)C6(C)C)C(C)(C)[C@@H]5CC[C@@]4(C)[C@]3(C)CC[C@@]2(NC(=O)C(C)(C)NC(=O)C2(c3ccccc3)CCCC2)CC1=O [Example 27, (1R,3S)-3-((((3aR,5aR,5bR,7aR,9S,11aR,11bR,13aS)-1-isopropyl-5a,5b,8,8,11a-pentamethyl-3a-(2-methyl-2-(1-phenylcyclopentane-1-carboxamido)propanamido)-2-oxo-3,3a,4,5,5a,5b,6,7,7a,8,9,10,11,11a,11b,12,13,13a-octadecahydro-2H-cyclopenta[a]chrysen-9-yl)oxy)carbonyl)-2,2-dimethylcyclobutane-1-carboxylic acid]
- viability at 4 days, 0.01 µM [2]: 52%
- viability at 4 days, 0.1 µM [2]: 2%
- viability at 4 days, 1 µM [2]: 0%

Structure (SMILES): CC(C)C1=C2[C@H]3CC[C@@H]4[C@@]5(C)CC[C@H](OC(=O)[C@H]6C[C@@H](C(=O)O)C6(C)C)C(C)(C)[C@@H]5CC[C@@]4(C)[C@]3(C)CC[C@@]2(NC(=O)C(C)(C)NC(=O)[C@@H]2CCCN2C(=O)OC(C)(C)C)CC1=O [Example 8, (1R,3S)-3-((((3aR,5aR,5bR,7aR,9S,11aR,11bR,13aS)-3a-(2-((S)-1-(tert-butoxycarbonyl)pyrrolidine-2-carboxamido)-2-methylpropanamido)-1-isopropyl-5a, 5b,8,8,11a-pentamethyl-2-oxo-3,3a,4,5,5a,5b,6,7,7a,8,9,10,11,11a,11b,12,13,13a-octadeca hydro-2H-cyclopenta[a]chrysen-9-yl)oxy)carbonyl)-2,2-dimethylcyclobutane-1-carboxylic acid]
- viability at 4 days, 0.01 µM [2]: 28%
- viability at 4 days, 0.1 µM [2]: 5%
- viability at 4 days, 1 µM [2]: 3%

Structure (SMILES): CC(C)C1=C2[C@H]3CC[C@@H]4[C@@]5(C)CC[C@H](OC(=O)[C@H]6C[C@@H](C(=O)O)C6(C)C)C(C)(C)[C@@H]5CC[C@@]4(C)[C@]3(C)CC[C@@]2(NC(=O)C(C)(C)NC(=O)c2ccco2)CC1=O [Example 26, (1R,3S)-3-((((3aR,5aR,5bR,7aR,9S,11aR,11bR,13aS)-3a-(2-(furan-2-carboxamido)-2-methylpropanamido)-1-isopropyl-5a,5b,8,8,11a-pentamethyl-2-oxo-3,3a,4,5,5a,5b,6,7,7a,8,9,10,11,11a,11b,12,13,13a-octadecahydro-2H-cyclopenta[a]chrysen-9-yl)oxy)carbonyl)-2,2-dimethylcyclobutane-1-carboxylic acid]
- viability at 4 days, 0.01 µM [2]: 55%
- viability at 4 days, 0.1 µM [2]: 20%
- viability at 4 days, 1 µM [2]: 0%

— patent US20170008921A1, “C-3 NOVEL TRITERPENONE WITH C-28 REVERSE AMIDE DERIVATIVES AS HIV INHIBITORS” (HETERO RESEARCH FOUNDATION, priority 2015, published 2017)
